Some test systems named below: MDA-MB-231; UACC-257; HOP-62; PC-3; HCC 2998; SW-620; SR; OVCAR-5; 786-0; SK-OV-3; OVCAR-3; NCI-H226; U-251; NCI-H460; M19-MEL; TK-10; SF-295; OVCAR-4; HCT-116; COLO 205.
Holding throughout (test): growth of human tumour cells (NCI), 48 h

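Protocol summary: plate cells (96-well), add compound at 5 concentrations, incubate 48 h, interpolate endpoints linearly. The concentration for 50% growth inhibition is given as GI50.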 Activity calls are given as the source filed them. Cut-off read from the data, not from the text of the source: active = GI50 up to about 1.1 µM and inactive = higher.

`CCC1=C(CC2NCCc3ccccc32)CC2c3cc(OC)c(OC)cc3CCN2C1` (stereo not drawn): the GI50 in the test with MDA-MB-231 is 358 nM (active); in the test on UACC-257 it was 1020 nM (active); in the test with HOP-62, 627 nM (active); in the test with PC-3 it was 333 nM (active); with HCC 2998, 432 nM (active); in the test on SW-620, 384 nM (active). For the same compound, the GI50 in the test with SR was 342 nM (active); in the test on OVCAR-5, 579 nM (active); with 786-0, 338 nM (active); in the test on SK-OV-3, 1070 nM (active); in the test on OVCAR-3, 841 nM (active); in the test on NCI-H226, 757 nM (active). Further, the GI50 in the test with U-251 is 550 nM (active); with NCI-H460, 300 nM (active); in the test on M19-MEL, 627 nM (active); in the test with TK-10 it was 728 nM (active); in the test on SF-295 it was 565 nM (active); in the test on OVCAR-4, 237 nM (active). For the same compound, the GI50 in the test with HCT-116 was 307 nM (active).

With `CCCCCCCCCCCCCCCC(=O)OCC1OC(n2ccc(N)nc2=O)C(O)C1O` (stereo not drawn), the GI50 in the test with MDA-MB-231 was > 100000 nM (inactive); with UACC-257, 33400 nM (inactive); in the test with HOP-62, 403 nM (active); in the test with PC-3 it was > 100000 nM (inactive); in the test on HCC 2998, 8470 nM (inactive); in the test with SR it was 1500 nM (inactive). The GI50 in the test with OVCAR-5 was > 38000 nM (inactive); with 786-0, 4290 nM (inactive); with SK-OV-3, 15500 nM (inactive); in the test with OVCAR-3 it was > 28200 nM (inactive); in the test on NCI-H226 it was > 100000 nM (inactive); in the test on COLO 205 it was 15000 nM (inactive). For the same compound, the GI50 with U-251 is 21800 nM (inactive); in the test on NCI-H460, 401 nM (active); in the test on M19-MEL it was 2260 nM (inactive); in the test on TK-10, > 96400 nM (inactive); in the test on SF-295 it was 44800 nM (inactive); in the test with OVCAR-4, > 100000 nM (inactive). Also, the GI50 in the test on HCT-116 is 2220 nM (inactive).

As for `O=c1c2ccccc2n2nnc3ccc(NCCNCCO)c1c32`, the GI50 is 2850 nM (inactive) in the test on MDA-MB-231; 3320 nM (inactive) with UACC-257; 2080 nM (inactive) with HOP-62; 1290 nM (inactive) in the test with PC-3; 1510 nM (inactive) in the test with HCC 2998; 710 nM (active) in the test on SW-620. For the same compound, the GI50 in the test with SR was 649 nM (active); in the test with OVCAR-5 it was 2340 nM (inactive); with 786-0, 1020 nM (active); in the test with SK-OV-3, 2080 nM (inactive); with OVCAR-3, 1700 nM (inactive); in the test on NCI-H226 it was 2290 nM (inactive). The GI50 was 946 nM (active) in the test on COLO 205; 944 nM (active) in the test on U-251; 679 nM (active) with NCI-H460; 2260 nM (inactive) in the test on M19-MEL; 2790 nM (inactive) in the test with TK-10; 2060 nM (inactive) in the test on SF-295. Besides, the GI50 in the test with OVCAR-4 is 1710 nM (inactive); with HCT-116, 1290 nM (inactive).
